From patent publication US20230374007A1, “COMPOUNDS AND THEIR USE IN TREATING CANCER” (AstraZeneca AB, priority 2020, published 2023)

molecular target: T1, cereblon (CRBN)—DNA damage protein 1 (DDB1) complex (Homo sapiens, UniProt Q96SW2); assay: Cereblon HTRF binding assay; conditions: not given
T1 construct: encoding amino acid residues 1 to 442 (Uniprot Q96SW2); hexahistidine (N); thrombin cleavage site (N); made in house; host or cells: Sf9 insect cells (baculovirus co-infection)
Summary of the method: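 Biotinylated His-tagged CRBN-DDB1 (0.2 nM, baculovirus-expressed) was combined with 0.2 nM terbium cryptate streptavidin and 2 nM Cy5-lenalidomide probe in 50 mM Tris-HCl pH 7.5, 100 mM NaCl, 1 mM TCEP, 500 μM EDTA, 0.01% Pluronic F127 for 2 h at r.t. HTRF ratio was normalized to plate controls. IC50 came from a Hill fit, given as mean of one or more experiments.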

T1 sequence (Q96SW2 with tags, fused parts or gaps): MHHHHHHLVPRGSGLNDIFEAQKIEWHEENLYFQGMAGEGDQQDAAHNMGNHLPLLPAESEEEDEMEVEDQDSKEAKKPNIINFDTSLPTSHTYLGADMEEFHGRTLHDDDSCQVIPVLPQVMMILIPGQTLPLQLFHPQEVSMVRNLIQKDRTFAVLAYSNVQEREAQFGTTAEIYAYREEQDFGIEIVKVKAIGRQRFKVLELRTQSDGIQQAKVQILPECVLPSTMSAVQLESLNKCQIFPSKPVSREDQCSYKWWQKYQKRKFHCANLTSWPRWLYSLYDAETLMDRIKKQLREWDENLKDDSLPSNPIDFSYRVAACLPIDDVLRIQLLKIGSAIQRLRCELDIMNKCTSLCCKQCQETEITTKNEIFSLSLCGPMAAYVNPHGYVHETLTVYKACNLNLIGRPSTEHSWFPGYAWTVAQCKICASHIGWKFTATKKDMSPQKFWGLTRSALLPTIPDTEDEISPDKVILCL

`O=C1CCN(c2cncc3[nH]ccc23)C(=O)N1` [Example 17, 1-(1H-Pyrrolo[2,3-c]pyridin-4-yl)dihydropyrimidine-2,4 (1H,3H)-dione] was tested. Which IC50 did it give?
The IC50 was 206 nM.

Which IC50 does the source give for `Cn1ccc2ccc(N3CCC(=O)NC3=O)cc21` [Example 59, 1-(1-Methyl-1H-indol-6-yl)dihydropyrimidine-2,4 (1H,3H)-dione] here?
Its IC50 is 329 nM.

With `O=C1CCN(c2cnc3cc[nH]c3c2)C(=O)N1` [Example 40, 1-(1H-Pyrrolo[3,2-b]pyridin-6-yl)dihydropyrimidine-2,4 (1H,3H)-dione] as the compound, how does the IC50 read?
Its IC50 is 186 nM.

`O=C1CCN(c2ccc3cnoc3c2)C(=O)N1` [Example 39, 1-(Benzo[d]isoxazol-6-yl)dihydropyrimidine-2,4 (1H,3H)-dione] was tested. Which IC50 did it give?
Its IC50 is 82 nM.

With `CC(=O)N1CCN(c2c[nH]c3ccc(N4CCC(=O)NC4=O)cc23)CC1` [Example 79, 1-(3-(4-Acetylpiperazin-1-yl)-1H-indol-5-yl)dihydropyrimidine-2,4 (1H,3H)-dione] as the compound, how does the IC50 read?
The IC50 was 1980 nM.

`Cn1cc(N2CCNCC2)c2cc(N3CCC(=O)NC3=O)ccc21` [Example 76, 1-(1-Methyl-3-(piperazin-1-yl)-1H-indol-5-yl)dihydropyrimidine-2,4 (1H,3H)-dione] was tested. Which IC50 did it give?
The IC50 was 1920 nM.

For `O=C1CCN(c2ccc3ncsc3c2)C(=O)N1` [Example 9, 1-(Benzo[d]thiazol-6-yl)dihydropyrimidine-2,4 (1H,3H)-dione], which IC50 is on record?
Its IC50 is 5350 nM.

For `O=C1CCN(c2ccc3c(c2)NCC3)C(=O)N1` [Example 22, 1-(Indolin-6-yl)dihydropyrimidine-2,4 (1H,3H)-dione], which IC50 is on record?
The IC50 was 487 nM.

With `O=C1CCN(c2ccc3c(C4CCNCC4)c[nH]c3c2)C(=O)N1` [Example 116, 1-(3-(Piperidin-4-yl)-1H-indol-6-yl)dihydropyrimidine-2,4 (1H,3H)-dione] as the compound, how does the IC50 read?
The IC50 was 368 nM.

For `COCc1cc(N2CCC(=O)NC2=O)c2ccn(C)c2c1` [Example 19, 1-(6-(Methoxymethyl)-1-methyl-1H-indol-4-yl)dihydropyrimidine-2,4 (1H,3H)-dione], which IC50 is on record?
Its IC50 is 430 nM.

For `CN(C)c1cc(N2CCC(=O)NC2=O)cc2[nH]ccc12` [Example 133, 1-(4-(Dimethylamino)-1H-indol-6-yl)dihydropyrimidine-2,4 (1H,3H)-dione], which IC50 is on record?
Its IC50 is 2820 nM.

Which IC50 does the source give for `O=C1CCN(c2ccn3cc(C4CCNCC4)nc3c2)C(=O)N1` [Example 92, 1-(2-(Piperidin-4-yl)imidazo[1,2-a]pyridin-7-yl)dihydropyrimidine-2,4 (1H,3H)-dione] here?
Its IC50 is 5240 nM.

How did the IC50 turn out when `O=C1CCN(c2ccc3ncoc3c2)C(=O)N1` [Example 5, 1-(Benzo[d]oxazol-6-yl)dihydropyrimidine-2,4 (1H,3H)-dione] was run?
The IC50 was 6740 nM.

Which IC50 does the source give for `CN1CCC(c2c[nH]c3cc(N4CCC(=O)NC4=O)ccc23)CC1` [Example 117, 1-(3-(1-Methylpiperidin-4-yl)-1H-indol-6-yl)dihydropyrimidine-2,4 (1H,3H)-dione] here?
The IC50 was 2160 nM.

`CNC(=O)Cc1cc2ccc(N3CCC(=O)NC3=O)cc2[nH]1` [Example 67, 2-(6-(2,4-Dioxotetrahydropyrimidin-1 (2H)-yl)-1H-indol-2-yl)-N-methylacetamide] was tested. Which IC50 did it give?
The IC50 was 974 nM.

For `Cn1c(C2CCNCC2)cc2c(N3CCC(=O)NC3=O)cccc21` [Example 88, 1-(1-Methyl-2-(piperidin-4-yl)-1H-indol-4-yl)dihydropyrimidine-2,4 (1H,3H)-dione], which IC50 is on record?
Its IC50 is 679 nM.

For `CN1CCC(c2cc3c(N4CCC(=O)NC4=O)cccc3[nH]2)CC1` [Example 87, 1-(2-(1-Methylpiperidin-4-yl)-1H-indol-4-yl)dihydropyrimidine-2,4 (1H,3H)-dione], which IC50 is on record?
Its IC50 is 379 nM.

For `O=C1CCN(c2ccc3cc4n(c3c2)CCNC4)C(=O)N1` [Example 102, 1-(1,2,3,4-Tetrahydropyrazino[1,2-a]indol-7-yl)dihydropyrimidine-2,4 (1H,3H)-dione], which IC50 is on record?
Its IC50 is 274 nM.

For `O=C1CCN(c2ccc3c(c2)CNC3)C(=O)N1` [Example 24, 1-(Isoindolin-5-yl)dihydropyrimidine-2,4 (1H,3H)-dione], which IC50 is on record?
The IC50 was 8980 nM.

How did the IC50 turn out when `CN1CCN(c2noc3cc(N4CCC(=O)NC4=O)ccc23)CC1` [Example 94, 1-(3-(4-Methylpiperazin-1-yl)benzo[d]isoxazol-6-yl)dihydropyrimidine-2,4 (1H,3H)-dione] was run?
Its IC50 is 4200 nM.

`CNC(=O)Cc1c[nH]c2cc(N3CCC(=O)NC3=O)ccc12` [Example 66, 2-(6-(2,4-Dioxotetrahydropyrimidin-1 (2H)-yl)-1H-indol-3-yl)-N-methylacetamide] was tested. Which IC50 did it give?
The IC50 was 264 nM.

With `O=C1CCN(c2cc(F)c3cc[nH]c3c2)C(=O)N1` [Example 50, 1-(4-Fluoro-1H-indol-6-yl)dihydropyrimidine-2,4 (1H,3H)-dione] as the compound, how does the IC50 read?
The IC50 was 226 nM.

For `Cn1ncc2cc(N3CCC(=O)NC3=O)ccc21` [Example 6, 1-(1-Methyl-1H-indazol-5-yl)dihydropyrimidine-2,4 (1H,3H)-dione], which IC50 is on record?
Its IC50 is 3930 nM.

How did the IC50 turn out when `Cc1cn(-c2ccc3cc[nH]c3c2)c(=O)[nH]c1=O` [Example 15, 1-(1H-Indol-6-yl)-5-methylpyrimidine-2,4 (1H,3H)-dione] was run?
Its IC50 is 10600 nM.

How did the IC50 turn out when `CN1CCC(c2cc3c(N4CCC(=O)NC4=O)cccc3n2C)CC1` [Example 89, 1-(1-Methyl-2-(1-methylpiperidin-4-yl)-1H-indol-4-yl)dihydropyrimidine-2,4 (1H,3H)-dione] was run?
Its IC50 is 1210 nM.

`CN1CCC(c2cc3ccc(N4CCC(=O)NC4=O)cc3n2C)CC1` [Example 85, 1-(1-Methyl-2-(1-methylpiperidin-4-yl)-1H-indol-6-yl)dihydropyrimidine-2,4 (1H,3H)-dione] was tested. Which IC50 did it give?
Its IC50 is 195 nM.

`CN1CCC(n2cc3ccc(N4CCC(=O)NC4=O)cc3n2)CC1` [Example 110, 1-(2-(1-Methylpiperidin-4-yl)-2H-indazol-6-yl)dihydropyrimidine-2,4 (1H,3H)-dione] was tested. Which IC50 did it give?
Its IC50 is 655 nM.

`CN1CCN(c2ccc(N3CCC(=O)NC3=O)c3cc[nH]c23)CC1` [Example 124, 1-(7-(4-Methylpiperazin-1-yl)-1H-indol-4-yl)dihydropyrimidine-2,4 (1H,3H)-dione] was tested. Which IC50 did it give?
The IC50 was 527 nM.

Which IC50 does the source give for `O=C1CCN(c2ccc3cc[nH]c3c2F)C(=O)N1` [Example 54, 1-(7-Fluoro-1H-indol-6-yl)dihydropyrimidine-2,4 (1H,3H)-dione] here?
Its IC50 is 188 nM.

`N#Cc1ncc(N2CCC(=O)NC2=O)c2cc[nH]c12` [Example 135, 4-(2,4-dioxotetrahydropyrimidin-1 (2H)-yl)-1H-pyrrolo[2,3-c]pyridine-7-carbonitrile] was tested. Which IC50 did it give?
Its IC50 is 594 nM.

With `CC(=O)N1CCN(c2noc3cc(N4CCC(=O)NC4=O)ccc23)CC1` [Example 95, 1-(3-(4-Acetylpiperazin-1-yl)benzo[d]isoxazol-6-yl)dihydropyrimidine-2,4 (1H,3H)-dione] as the compound, how does the IC50 read?
Its IC50 is 6580 nM.

With `N#Cc1cc(N2CCC(=O)NC2=O)cc2[nH]ccc12` [Example 134, 6-(2,4-Dioxotetrahydropyrimidin-1 (2H)-yl)-1H-indole-4-carbonitrile] as the compound, how does the IC50 read?
The IC50 was 1660 nM.

molecular target: T2, endogenous IKZF1 protein in NB4 cells (Homo sapiens, UniProt Q13422); assay: Endogenous Ikaros 1 (IKZF1) degradation assay (SDS-PAGE); format: cell-based; conditions: 1 μM and 10 μM, 20 h of treatment
T2 construct: the endogenous IKZF1 protein; endogenous in cells; host or cells: NB4
T2 sequence (Q13422 whole entry): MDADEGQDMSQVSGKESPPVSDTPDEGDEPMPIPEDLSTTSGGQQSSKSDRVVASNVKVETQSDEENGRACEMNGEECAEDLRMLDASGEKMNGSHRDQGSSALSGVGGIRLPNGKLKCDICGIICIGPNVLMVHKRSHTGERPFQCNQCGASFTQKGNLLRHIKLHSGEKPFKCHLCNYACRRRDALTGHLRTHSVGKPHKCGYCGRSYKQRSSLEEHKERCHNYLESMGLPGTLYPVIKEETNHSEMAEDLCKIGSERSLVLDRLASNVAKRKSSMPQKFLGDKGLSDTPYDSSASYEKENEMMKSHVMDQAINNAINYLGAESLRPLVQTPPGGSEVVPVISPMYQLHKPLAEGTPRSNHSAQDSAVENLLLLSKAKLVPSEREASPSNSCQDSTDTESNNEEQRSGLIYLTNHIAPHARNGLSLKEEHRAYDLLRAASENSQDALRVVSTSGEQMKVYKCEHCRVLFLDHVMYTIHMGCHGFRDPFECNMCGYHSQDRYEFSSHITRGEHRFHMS

How did the IKZF1 degradation turn out when `O=C1CCN(c2cncc3[nH]ccc23)C(=O)N1` [Example 17, 1-(1H-Pyrrolo[2,3-c]pyridin-4-yl)dihydropyrimidine-2,4 (1H,3H)-dione] was run?
Its IKZF1 degradation is “no observable/meaningful IKZF1 degradation”.

For `O=C1CCN(c2cnc3cc[nH]c3c2)C(=O)N1` [Example 40, 1-(1H-Pyrrolo[3,2-b]pyridin-6-yl)dihydropyrimidine-2,4 (1H,3H)-dione], which IKZF1 degradation is on record?
The IKZF1 degradation was “no observable/meaningful IKZF1 degradation”.

With `O=C1CCN(c2ccc3cnoc3c2)C(=O)N1` [Example 39, 1-(Benzo[d]isoxazol-6-yl)dihydropyrimidine-2,4 (1H,3H)-dione] as the compound, how does the IKZF1 degradation read?
Its IKZF1 degradation is “no observable/meaningful IKZF1 degradation”.

Which IKZF1 degradation does the source give for `Nc1cccc2c1CN(C1CCC(=O)NC1=O)C2=O` (centres unmarked) [lenalidomide, reference compound] here?
Its IKZF1 degradation is “degradation of IKZF1 to an undetected level”.

molecular target: T3, endogenous SALL4 protein in Kelly cells (Homo sapiens, UniProt Q9UJQ4); assay: Endogenous SALL4 degradation assay (SDS-PAGE); format: cell-based; conditions: 10 μM, 20 h of treatment
T3 construct: the endogenous SALL4 protein; endogenous in cells; host or cells: Kelly
T3 sequence (Q9UJQ4 whole entry): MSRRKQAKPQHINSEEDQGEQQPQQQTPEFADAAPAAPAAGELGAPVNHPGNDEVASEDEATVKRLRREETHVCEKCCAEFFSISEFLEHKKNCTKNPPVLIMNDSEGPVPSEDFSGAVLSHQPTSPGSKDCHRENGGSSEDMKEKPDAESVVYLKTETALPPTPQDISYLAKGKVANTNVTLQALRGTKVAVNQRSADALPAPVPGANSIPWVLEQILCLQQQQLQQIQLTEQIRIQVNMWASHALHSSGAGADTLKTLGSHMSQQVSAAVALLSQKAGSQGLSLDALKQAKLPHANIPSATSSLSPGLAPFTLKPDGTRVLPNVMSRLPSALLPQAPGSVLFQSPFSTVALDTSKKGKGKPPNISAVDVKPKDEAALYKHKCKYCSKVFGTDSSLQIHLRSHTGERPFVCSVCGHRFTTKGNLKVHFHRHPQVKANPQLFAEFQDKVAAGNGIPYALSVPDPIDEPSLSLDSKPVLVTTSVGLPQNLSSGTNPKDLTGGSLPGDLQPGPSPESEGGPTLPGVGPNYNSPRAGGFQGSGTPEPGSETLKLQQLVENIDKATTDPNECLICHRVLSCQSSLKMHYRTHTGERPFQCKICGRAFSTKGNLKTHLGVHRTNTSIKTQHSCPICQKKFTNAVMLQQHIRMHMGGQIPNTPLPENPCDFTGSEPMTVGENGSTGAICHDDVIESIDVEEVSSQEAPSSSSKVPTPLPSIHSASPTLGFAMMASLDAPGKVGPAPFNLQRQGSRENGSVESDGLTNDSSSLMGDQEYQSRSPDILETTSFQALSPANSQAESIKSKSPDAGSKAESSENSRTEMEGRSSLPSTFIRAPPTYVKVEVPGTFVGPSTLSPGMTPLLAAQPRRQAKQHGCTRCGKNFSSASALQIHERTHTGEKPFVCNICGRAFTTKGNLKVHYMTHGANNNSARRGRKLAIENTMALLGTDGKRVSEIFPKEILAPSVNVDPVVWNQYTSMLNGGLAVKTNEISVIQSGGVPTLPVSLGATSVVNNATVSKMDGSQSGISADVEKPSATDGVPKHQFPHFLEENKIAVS

How did the SALL4 degradation turn out when `Cn1ccc2ccc(N3CCC(=O)NC3=O)cc21` [Example 59, 1-(1-Methyl-1H-indol-6-yl)dihydropyrimidine-2,4 (1H,3H)-dione] was run?
The SALL4 degradation was “no observable/meaningful SALL4 degradation”.

How did the SALL4 degradation turn out when `O=C1CCC(N2C(=O)c3ccccc3C2=O)C(=O)N1` (centres unmarked) [thalidomide, reference compound] was run?
Its SALL4 degradation is “degradation of SALL4 to an undetected level”.
